Experimental data: patent US6864275B1, “Compounds and methods for use thereof in the treatment of cancer” (UAF Technologies and Research, LLC, priority 1997, dated 2005)

Tests used:
Tubulin = test: Microtubule inhibition assay (tubulin polymerization, absorbance at 350 nm); format: biochemical, bovine; conditions: compound at 2 μM, after 30 minutes
Experimental: The benzimidazole derivatives of this invention were evaluated for their ability to inhibit formation of microtubules, following the procedure of Luduena, R. F. and M. C. […] Microtubule polymerization was followed by performing the reaction in a cuvette and monitoring UV absorbance at 350 nm, allowing direct visualization of the time course of the polymerization.

B16 murine melanoma [1] = test: MTT cell growth inhibition, B16 melanoma cells; format: cell-based; conditions: 3-6 days incubation
Experimental: (§1) The following cell culture tests were performed to test the toxicity of benzimidazole derivative compounds of the present invention on colon and melanoma tumor cells. The viability of the cells were tested by looking at MTT (3-[4,5-dimethylthiazol-2-yl]-2,5-diphenyltetrazolium bromide) reduction. MTT assay is a well known measure of cell viability.
(§2) The colon tumor cells (HT29) and the melanoma cells (B16 murine melanoma) were seeded (1000-2000 cells) into each well of a 96-well microtiter plate and allowed to grow. Twenty-four hours later, increasing concentrations of each benzimidazole derivative were added to the plates and the cells were allowed to incubate for 3-6 days in the presence of the drugs. MTT reagent was then added to the wells and allowed to incubate for 4 hours at 37° C., after which the formazan metabolite was solubilized with acidic isopropanol and the absorbance was read. Experimental controls included blank wells to which no cells were added (zero point of formazan absorbance) and control wells to which no drug was added (highest level of formazan absorbance). Each drug concentration was tested in duplicate and the resulting average absorbance was plotted against drug concentration using the EZ-ED50 computer program on a personal computer interfaced to the microtiter plate reader. […] The IC50 value is then derived from this equation by EZ-ED50.

B16 murine melanoma [2] = test: In vivo B16 murine melanoma tumor model; design: species or system B6D2F1 mice; conditions: qd × 5; for T/C (%): mean survival treated/control; for # of Survivors: survived at least 60 days
Experimental: B6D2F1 mice received interperitoneally (i.p.) inocula of B16 murine melanoma brei prepared from B16 tumors growing s.c. in mice (Day 0). On Day 1, mice were randomized into groups, with 20 mice in the control group and 10 mice in each treated group (except there were 8 mice in selected groups given compound 3-13. Treatment with drugs or vehicle control was started on Day 1.
The mean survival times of all groups were calculated and results were expressed as mean survival of treated mice/mean survival of control mice (T/C)×100%. A “T/C” value of 150 means that the mice in the treated group lived 50% longer than those of the control group; this is sometimes referred to as the increase in life span, or ILS value.
Mice that survived for at least 60 days were considered to be long-term survivors, or cures, in the B16 model. The universally accepted cut-off for activity in this model, which has been used for years by the NCI, is T/C=125. Conventional use of B16 over the years has set the following levels of activity:
T/C>300, with long-term survivors=excellent, curative activity.

colon tumor cells (HT29) = test: MTT cell growth inhibition, HT29 colon tumor cells; format: cell-based; conditions: 3-6 days incubation, read-out: IC50 Human Colon Carcinoma
Experimental: as §1, §2

Structure (SMILES)	Tubulin Polymerization Inhibition, % Inhibition (Tubulin) [%]	IC50 (B16 murine melanoma [1]) [µM]	# of Toxic Deaths (B16 murine melanoma [2]; 20 mg/kg/i.v)	Weight Change (Day 12) (B16 murine melanoma [2]; 20 mg/kg/i.v)	T/C (%) (B16 murine melanoma [2]; 20 mg/kg/i.v)	# of Survivors (B16 murine melanoma [2]; 20 mg/kg/i.v)	# of Toxic Deaths (B16 murine melanoma [2]; 50 mg/kg/i.p)	Weight Change (Day 12) (B16 murine melanoma [2]; 50 mg/kg/i.p)	T/C (%) (B16 murine melanoma [2]; 50 mg/kg/i.p)	# of Survivors (B16 murine melanoma [2]; 50 mg/kg/i.p)	# of Toxic Deaths (B16 murine melanoma [2]; 100 mg/kg/i.p)	Weight Change (Day 12) (B16 murine melanoma [2]; 100 mg/kg/i.p)	T/C (%) (B16 murine melanoma [2]; 100 mg/kg/i.p)	# of Survivors (B16 murine melanoma [2]; 100 mg/kg/i.p)	IC50 (colon tumor cells (HT29)) [µM]	# of Toxic Deaths (B16 murine melanoma [2]; 10 mg/kg/i.v)	Weight Change (Day 12) (B16 murine melanoma [2]; 10 mg/kg/i.v)	T/C (%) (B16 murine melanoma [2]; 10 mg/kg/i.v)	# of Survivors (B16 murine melanoma [2]; 10 mg/kg/i.v)	other results
CCC(C)COC(=O)c1ccc2nc(NC(=O)OC)[nH]c2c1 (stereo not shown) [3-19]	28	0.048	0	+7.8%	106	0	0	+9.6%	119	0	0	+10.8%	124	0	0.012	–	–	–	–	# of Toxic Deaths (B16 murine melanoma [2]; 40 mg/kg/i.v): 6; Weight Change (Day 12) (B16 murine melanoma [2]; 40 mg/kg/i.v): +2.5%; T/C (%) (B16 murine melanoma [2]; 40 mg/kg/i.v): 73%; # of Survivors (B16 murine melanoma [2]; 40 mg/kg/i.v): 0
COC(=O)Nc1nc2ccc(C(=O)OCC(C)CC(C)(C)C)cc2[nH]1 (stereo not shown) [3-13]	28	0.0046	–	–	–	–	0	+12.5%	94	0	0	+9.8%	75	0	0.019	–	–	–	–	# of Toxic Deaths (B16 murine melanoma [2]; 2.5 mg/kg/i.v): 0; Weight Change (Day 12) (B16 murine melanoma [2]; 2.5 mg/kg/i.v): +11.7%; T/C (%) (B16 murine melanoma [2]; 2.5 mg/kg/i.v): 92%; # of Survivors (B16 murine melanoma [2]; 2.5 mg/kg/i.v): 0; # of Toxic Deaths (B16 murine melanoma [2]; 5 mg/kg/i.v): 7; Weight Change (Day 12) (B16 murine melanoma [2]; 5 mg/kg/i.v): +3.6%; T/C (%) (B16 murine melanoma [2]; 5 mg/kg/i.v): 91%; # of Survivors (B16 murine melanoma [2]; 5 mg/kg/i.v): 0
COC(=O)Nc1nc2ccc(C(=O)OCCCCCl)cc2[nH]1 [Cpd. No. 3-1]	28	0.011	0	+6.3%	98	0	0	+7.5%	132	–	0	+12.9%	108	0	0.01	0	+9.3%	97	0	antitumor activity level by NCI criteria (B16 murine melanoma [2]; 50 mg/kg/i.p): weak activity (T/C=125-150, weak activity)
C=CCCOC(=O)c1ccc2nc(NC(=O)OC)[nH]c2c1 [3-6]	12	0.044	0	+6.5%	99	0	0	+9.4%	119	0	0	+8.9%	118	0	0.0076	0	+8.7%	107	0	–
